Starred links: 1 amine or outer side, 2 acyl side, 3 side chain; linkers in the order of their positions; H or OH if unused. Non-standard residues stand in square brackets, D forms with d. Residues, ends and D or L forms follow the SMILES beside them. Groups on a side chain read outwards from the residue. *: point of attachment. Ala(1H-tetrazol-5-yl) = N[C@@H](Cc1nnn[nH]1)C(=O)O; Gly(N-CH2CH2-imidazol-4-yl) = O=C(O)CNCCc1c[nH]cn1; C18 diacid = O=C(O)CCCCCCCCCCCCCCCCC(=O)*; X8 = O=C([C@H](CCc1nn[nH]n1)N[*:1])[*:2]; Dip = N[C@H](C(=O)O)C(c1ccccc1)c1ccccc1; γGlu = O=C(O)[C@H](CCC(=O)[*:2])N[*:1]; His(τ-Me) = Cn1cnc(C[C@H](N)C(=O)O)c1; Palmitoyl = CCCCCCCCCCCCCCCC(=O)*; Myristoyl = CCCCCCCCCCCCCC(=O)*; β3hF = N[C@H](CC(=O)O)Cc1ccccc1; NMeK = CN[C@@H](CCCCN)C(=O)O; PEG4 = NCCOCCOCCOCCOCCC(=O)O; hLeu = CC(C)CC[C@H](N)C(=O)O; Lauroyl = CCCCCCCCCCCC(=O)*; Isovaleryl = CC(C)CC(=O)*; AEEA = NCCOCCOCC(=O)O; NHBn = c1ccc(CN*)cc1; Ahx = NCCCCCC(=O)O
The molecules below were run against T1, ferroportin (Homo sapiens, UniProt Q9NP59) (assay: FPN activity assay: internalization/degradation of ferroportin-GFP in stably transfected HEK293 cells (loss of GFP fluorescence)). Settings: Table 6A; read-out: FPN EC50.
T1 sequence (Q9NP59 1-571): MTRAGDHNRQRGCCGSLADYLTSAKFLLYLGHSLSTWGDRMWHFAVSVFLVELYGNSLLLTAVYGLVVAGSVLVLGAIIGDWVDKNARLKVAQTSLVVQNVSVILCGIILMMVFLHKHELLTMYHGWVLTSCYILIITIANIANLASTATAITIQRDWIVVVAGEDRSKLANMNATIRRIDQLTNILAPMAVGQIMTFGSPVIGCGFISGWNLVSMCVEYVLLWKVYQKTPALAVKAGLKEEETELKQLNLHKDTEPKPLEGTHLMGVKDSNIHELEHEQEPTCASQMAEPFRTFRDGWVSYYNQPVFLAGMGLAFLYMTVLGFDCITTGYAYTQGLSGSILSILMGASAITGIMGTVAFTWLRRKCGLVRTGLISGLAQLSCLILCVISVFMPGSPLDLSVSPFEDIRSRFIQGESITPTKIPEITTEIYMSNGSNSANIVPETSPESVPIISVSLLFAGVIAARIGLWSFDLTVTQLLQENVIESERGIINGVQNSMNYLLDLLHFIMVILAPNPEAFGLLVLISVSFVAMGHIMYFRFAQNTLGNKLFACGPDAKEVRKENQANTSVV
Format: cell-based
Description: Following internalization, the ferroporin protein is degraded.
A retro inverse peptide is a peptide with a reversed sequence in all D amino acids. An example is that Hy-Glu-Thr-His-NH2 becomes Hy-DHis-DThr-DGlu-NH2. The EC50 of these reference compounds for ferroportin internalization/degradation was determined according to the FPN activity assay described above. These peptides served as control standards.

Row | SMILES | DC50 [nM]
1 | CCCCCCCCCCCCCCCC(=O)NCCCCCC(=O)NCCCC[C@H](NC(=O)[C@@H](NC(=O)[C@@H](NC(=O)[C@@H]1CCCN1C(=O)[C@@H](NC(=O)[C@H](Cc1c[nH]cn1)NC(=O)[C@@H](NC(=O)[C@H](Cc1nn[nH]n1)NC(=O)CC(C)C)[C@@H](C)O)C(c1ccccc1)c1ccccc1)[C@@H](C)CC)[C@@H](C)CC)C(=O)N[C@H](CC(N)=O)Cc1ccccc1 [compound 113] (Isovaleryl-[Ala(1H-tetrazol-5-yl)]TH[Dip]PIIK([Ahx-Palmitoyl])[β3hF]-NH2) | 86.8
2 | CCCCCCCCCCCCCCCC(=O)NCCCCCC(=O)NCCCC[C@H](NC(=O)[C@@H](NC(=O)[C@@H](NC(=O)[C@@H]1CCCN1C(=O)[C@@H](NC(=O)[C@H](Cc1cn(C)cn1)NC(=O)[C@@H](NC(=O)[C@H](CCc1nn[nH]n1)NC(=O)CC(C)C)[C@@H](C)O)C(c1ccccc1)c1ccccc1)[C@@H](C)CC)[C@@H](C)CC)C(=O)N[C@H](CC(N)=O)Cc1ccccc1 [compound 117] (Isovaleryl-[X8]T[His(τ-Me)][Dip]PIIK([Ahx-Palmitoyl])[β3hF]-NH2) | 101
3 | CCCCCCCCCCCCCCCC(=O)NCCCCCC(=O)NCCOCCOCC(=O)NCCOCCOCC(=O)NCCCC[C@H](NC(=O)[C@@H](NC(=O)[C@H](C)NC(=O)[C@@H]1CCCN1C(=O)[C@@H](NC(=O)[C@H](Cc1c[nH]cn1)NC(=O)[C@@H](NC(=O)[C@H](CCC(=O)O)NC(=O)CC(C)C)[C@@H](C)O)C(c1ccccc1)c1ccccc1)[C@@H](C)CC)C(=O)N[C@H](CC(N)=O)Cc1ccccc1 [compound 101] (Isovaleryl-ETH[Dip]PAIK([AEEA-AEEA-Ahx-Palmitoyl])[β3hF]-NH2) | 63.5
4 | CCCCCCCCCCCCCCCC(=O)NCCCCCC(=O)NCCCC[C@H](NC(=O)[C@@H](NC(=O)[C@H](C)NC(=O)[C@@H]1CCCN1C(=O)[C@@H](NC(=O)[C@H](Cc1cn(C)cn1)NC(=O)[C@@H](NC(=O)[C@H](CC(C)C)NC(=O)CC(C)C)[C@@H](C)O)C(c1ccccc1)c1ccccc1)[C@@H](C)CC)C(=O)N[C@H](CC(N)=O)Cc1ccccc1 [compound 45] (Isovaleryl-LT[His(τ-Me)][Dip]PAIK([Ahx-Palmitoyl])[β3hF]-NH2) | > 3000
5 | CC[C@H](C)[C@H](NC(=O)[C@H](C)NC(=O)[C@@H]1CCCN1C(=O)[C@@H](NC(=O)[C@H](Cc1cn(C)cn1)NC(=O)[C@@H](NC(=O)[C@H](CCC(=O)O)NC(=O)CC(C)C)[C@@H](C)O)C(c1ccccc1)c1ccccc1)C(=O)N[C@@H](CCCCNC(C)=O)C(=O)N[C@H](CC(=O)N[C@H](CCCCN)C(=O)N[C@@H](C)C(N)=O)Cc1ccccc1 [compound 36] (Isovaleryl-ET[His(τ-Me)][Dip]PAIK(Ac)[β3hF][dK]A-NH2) | > 3000
6 | CCCCCCCCCCCCCCCC(=O)NCCCCCC(=O)NCCCC[C@H](NC(=O)[C@@H](NC(=O)[C@H](C)NC(=O)[C@@H]1CCCN1C(=O)[C@@H](NC(=O)CN(CCc1c[nH]cn1)C(=O)[C@@H](NC(=O)[C@H](CCC(=O)O)NC(=O)CC(C)C)[C@@H](C)O)C(c1ccccc1)c1ccccc1)[C@@H](C)CC)C(=O)N[C@H](CC(N)=O)Cc1ccccc1 [compound 88] (Isovaleryl-ET[Gly(N-CH2CH2-imidazol-4-yl)][Dip]PAIK([Ahx-Palmitoyl])[β3hF]-NH2) | > 3000
7 | CCCCCCCCCCCCCCCC(=O)NCCCCCC(=O)NCCCC[C@H](NC(=O)[C@@H](NC(=O)[C@H](CCC(C)C)NC(=O)[C@@H]1CCCN1C(=O)[C@@H](NC(=O)[C@H](Cc1c[nH]cn1)NC(=O)[C@@H](NC(=O)[C@H](CCC(=O)O)NC(=O)CC(C)C)[C@@H](C)O)C(c1ccccc1)c1ccccc1)[C@@H](C)CC)C(=O)N[C@H](CC(N)=O)Cc1ccccc1 [compound 121] (Isovaleryl-ETH[Dip]P[hLeu]IK([Ahx-Palmitoyl])[β3hF]-NH2) | 150
8 | CCCCCCCCCCCCCCCC(=O)NCCCCCC(=O)NCCCC[C@H](NC(=O)C[C@H](Cc1ccccc1)NC(=O)[C@H](CCCCN)N(C)C(=O)[C@@H](NC(=O)[C@H](C)NC(=O)[C@@H]1CCCN1C(=O)[C@@H](NC(=O)[C@H](Cc1c[nH]cn1)NC(=O)[C@@H](NC(=O)[C@H](CC(C)C)NC(=O)CC(C)C)[C@@H](C)O)C(c1ccccc1)c1ccccc1)[C@@H](C)CC)C(N)=O [compound 46] (Isovaleryl-LTH[Dip]PAI[NMeK][β3hF]K([Ahx-Palmitoyl])-NH2) | 103
9 | CCCCCCCCCCCCCCCC(=O)NCCOCCOCCOCCOCCC(=O)NCCCC[C@H](NC(=O)[C@@H](NC(=O)[C@H](C)NC(=O)[C@@H]1CCCN1C(=O)[C@@H](NC(=O)[C@H](Cc1c[nH]cn1)NC(=O)[C@@H](NC(=O)[C@H](CCC(=O)O)NC(=O)CC(C)C)[C@@H](C)O)C(c1ccccc1)c1ccccc1)[C@@H](C)CC)C(=O)N[C@H](CC(N)=O)Cc1ccccc1 [compound 95] (Isovaleryl-ETH[Dip]PAIK([PEG4-Palmitoyl])[β3hF]-NH2) | 32.7

Same assay, conditions: Table 6B; read-out: FPN IC50

Row | SMILES | DC50 [nM]
10 | CCCCCCCCCCCCCCCC(=O)NCCCCCC(=O)NCCCC[C@H](NC(=O)C[C@H](Cc1ccccc1)NC(=O)[C@@H](CCCCN)NC(=O)[C@@H](NC(=O)[C@H](C)NC(=O)[C@@H]1CCCN1C(=O)[C@H](C)NC(=O)[C@H](Cc1c[nH]cn1)NC(=O)[C@@H](NC(=O)[C@H](CCC(=O)O)NC(=O)CC(C)C)[C@@H](C)O)[C@@H](C)CC)C(=O)N[C@H](CCCCN)C(=O)N[C@@H](C)C(N)=O [compound 151] (Isovaleryl-ETHAPAI[dK][β3hF]K([Ahx-Palmitoyl])[dK]A-NH2) | > 3000

Same assay, conditions: ferroportin-GFP HEK293 cells, compound incubated at least 18 hours; read-out: FPN IC50

Row | SMILES | DC50 [nM]
11 | CCCCCCCCCCCC(=O)NCCCCCC(=O)NCCCC[C@H](NC(=O)[C@@H](NC(=O)[C@H](C)NC(=O)[C@@H]1CCCN1C(=O)[C@H](Cc1ccccc1)NC(=O)[C@H](Cc1c[nH]cn1)NC(=O)[C@@H](NC(=O)[C@H](CCC(=O)O)NC(=O)CC(C)C)[C@@H](C)O)[C@@H](C)CC)C(=O)N[C@@H](Cc1ccccc1)C(=O)N[C@@H](CCC(=O)O)C(=O)N1CCC[C@H]1C(=O)N[C@@H](CCCNC(=N)N)C(=O)N[C@@H](CO)C(=O)N[C@@H](CCCCN)C(=O)NCC(=O)N[C@@H](C)C(=O)N[C@@H](CCCCN)C(N)=O [compound 243] (Isovaleryl-ETHFPAIK([Ahx-Lauroyl])FEPRSKGAK-NH2) | 1070
12 | CC(C)CC(=O)N[C@@H](CC(C)C)C(=O)N[C@H](C(=O)N[C@@H](Cc1c[nH]cn1)C(=O)N[C@H](C(=O)N[C@@H](CCCCNC(=O)COCCOCCNC(=O)COCCOCCNC(=O)CC[C@H](NC(=O)CCCCCCCCCCCCCCCCC(=O)O)C(=O)O)C(=O)NCc1ccccc1)C(c1ccccc1)c1ccccc1)[C@@H](C)O [compound 227] (Isovaleryl-LTH[Dip]K([AEEA-AEEA-γGlu-C18 diacid])-NHBn) | > 3000
13 | CCCCCCCCCCCCCCCC(=O)NCCCCCC(=O)NCCCC[C@H](NC(=O)CC(C)C)C(=O)N[C@H](C(=O)N[C@@H](Cc1c[nH]cn1)C(=O)N[C@H](C(=O)N1CCC[C@H]1C(=O)N[C@@H](C)C(=O)N[C@H](C(=O)N[C@H](CCCCN)C(=O)N[C@H](CC(N)=O)Cc1ccccc1)[C@@H](C)CC)C(c1ccccc1)c1ccccc1)[C@@H](C)O [compound 203] (Isovaleryl-K([Ahx-Palmitoyl])TH[Dip]PAI[dK][β3hF]-NH2) | 654
14 | CCCCCCCCCCCCCC(=O)NCCCCCC(=O)NCCCC[C@H](NC(=O)[C@@H](NC(=O)[C@H](C)NC(=O)[C@@H]1CCCN1C(=O)[C@H](Cc1ccccc1)NC(=O)[C@H](Cc1c[nH]cn1)NC(=O)[C@@H](NC(=O)[C@H](CCC(=O)O)NC(=O)CC(C)C)[C@@H](C)O)[C@@H](C)CC)C(=O)N[C@@H](Cc1ccccc1)C(=O)N[C@@H](CCC(=O)O)C(=O)N1CCC[C@H]1C(=O)N[C@@H](CCCNC(=N)N)C(=O)N[C@@H](CO)C(=O)N[C@@H](CCCCN)C(=O)NCC(=O)N[C@@H](C)C(=O)N[C@H](CCCCN)C(N)=O [compound 245] (Isovaleryl-ETHFPAIK([Ahx-Myristoyl])FEPRSKGA[dK]-NH2) | 1160
15 | CCCCCCCCCCCCCCCC(=O)NCCCCCC(=O)NCCCC[C@H](NC(=O)[C@@H](NC(=O)[C@H](CC(C)C)NC(=O)[C@@H]1CCCN1C(=O)[C@@H](NC(=O)[C@H](Cc1c[nH]cn1)NC(=O)[C@@H](NC(=O)[C@H](CCC(=O)O)NC(=O)CC(C)C)[C@@H](C)O)C(c1ccccc1)c1ccccc1)[C@@H](C)CC)C(=O)N[C@@H](CC(C)C)C(N)=O [compound 205] (Isovaleryl-ETH[Dip]PLIK([Ahx-Palmitoyl])L-NH2) | 37.4
16 | CCCCCCCCCCCCCC(=O)NCCCCCC(=O)NCCCC[C@H](NC(=O)[C@@H](NC(=O)[C@H](C)NC(=O)[C@@H]1CCCN1C(=O)[C@H](Cc1ccccc1)NC(=O)[C@H](Cc1c[nH]cn1)NC(=O)[C@@H](NC(=O)[C@H](CCC(=O)O)NC(=O)CC(C)C)[C@@H](C)O)[C@@H](C)CC)C(=O)N[C@@H](Cc1ccccc1)C(=O)N[C@@H](CCC(=O)O)C(=O)N1CCC[C@H]1C(=O)N[C@@H](CCCNC(=N)N)C(=O)N[C@H](CO)C(N)=O [compound 247] (Isovaleryl-ETHFPAIK([Ahx-Myristoyl])FEPR[dS]-NH2) | 1160
17 | CCCCCCCCCCCCCCCC(=O)NCCCCCC(=O)NCCCC[C@H](NC(C)=O)C(=O)N[C@H](C(=O)N[C@@H](Cc1c[nH]cn1)C(=O)N[C@H](C(=O)N1CCC[C@H]1C(=O)N[C@@H](C)C(=O)N[C@H](C(=O)N[C@H](CCCCN)C(=O)N[C@H](CC(N)=O)Cc1ccccc1)[C@@H](C)CC)C(c1ccccc1)c1ccccc1)[C@@H](C)O [compound 201] (Ac-K([Ahx-Palmitoyl])TH[Dip]PAI[dK][β3hF]-NH2) | > 3000

— patent US20240066131A1 (Protagonist Therapeutics, Inc., priority 2020, published 2024)
